Laboratory results as given in PMC3573960 (Molecular Neurodegeneration, 2012).

Tests used:
[1] = tested on: Tg2576 mice; experiment: Acute treatment study in Tg2576 mice, brain Aβ by ELISA after TBS extraction; settings: 4 h
Description: Aβ peptide levels were quantified by sandwich ELISA. Plates were coated overnight at 4°C with either human anti-AβTotal (amino acids [aa] 27–37) or rodent anti-Aβ1-x (aa 1–8) rabbit polyclonal antibodies. For detection of Aβ38 and Aβ42, plates were coated with antibodies specific for the carboxyl-terminal neoepitope of each peptide. Antibodies were from Dr. Pankaj Mehta (Institute for Basic Research in Developmental Disabilities, Staten Island, NY) [58].
The 10 and 30 mg/kg doses were a solution and a suspension, respectively. […] After extraction of the brain, olfactory bulbs and hindbrain were removed and the cerebral hemispheres were cut into 4 pieces. […] All tissue samples were weighed, frozen in liquid nitrogen, and stored at −80°C until analysis.
In order to examine both soluble and insoluble pools of Aβ, sequential extraction of Tg2576 mouse brain samples was performed to produce 4 pools of Aβ, essentially as described elsewhere [37]. Briefly, brains were homogenized in 25 mM TBS, pH 7.4 with protease inhibitors (Mini Complete™) to release the soluble Aβ into the resulting supernatants after high speed ultracentrifugation. […] The extracted Aβ from each step was subjected to ELISA for human Aβ42, Aβ38, and AβTotal, as described above.

[2] = tested on: γ-secretase (NotchΔE); experiment: NICD production (S3 cleavage of NotchΔE) in transfected HEK293 cells; settings: HEK293 cells expressing NotchΔE, 20 h, up to 30 μM
Description: HEK293 cells (700,000 cells per assay condition) were transiently transfected with a NotchΔE, myc-tagged construct to produce a truncated Notch1 substrate, which is constitutively cleaved by γ-secretase (S3 cleavage) [62]. Control transfections were performed with an empty vector. […] The amounts of NICD and total Notch were quantified and NICD was expressed as a percentage of total Notch. The DMSO control condition was set at 100%. Cell viability was determined using the CellTiter-Blue® Cell Viability Assay (Promega).

[3] = tested on: Aph1AL containing γ-secretase complexes; experiment: Cell-free AICD production from APP β-CTF (Western blot); type: biochemical, murine; settings: up to 100 μM
Description: DAPT was used as a reference positive control for the assay. For each assay condition, a 5-μL microsomal fraction, containing 1% CHAPSO (3-[(3-cholamidopropyl)dimethylammonio]-2-hydroxy-1-propanesulfonate) from murine embryonic fibroblasts (MEF) lacking the Aph-1A, Aph-1B, and Aph-1C genes (triple knock out) and rescued with Aph-1AL, was prepared in a reaction mixture of 5 μL substrate (recombinant APP β-CTF 3-Flag-tagged) at 0.8 μM, 0.0125% phosphatidylethanolamine, 0.1%, phosphatidylcholine, 0.05% sphingomyelin, and 8.9 μL PIPES (piperazine-N,N′-bis[−ethanesulfonic acid]) buffer. […] For detection of AICD, one-half of the reaction mixture was purified by a methanol-chloroform extraction in order to remove lipids and hydrophobic proteins (e.g., APP β-CTF). This purified fraction was further analyzed by SDS-PAGE and Western blotting. AICD was detected with an ANTI-FLAG® antibody (Sigma-Aldrich). The other half of the reaction mixture was used to analyze the levels of Aβ1-40 and Aβ1-42 by AlphaLisa (Perkin Elmer, Waltham, MA).

[4] = tested on: γ-secretase (EphA4); experiment: EphA4 CTF accumulation in rat primary neocortical cultures (Western blot); settings: 24 h, up to 10 μM
Description: Protein concentration of the lysate was determined by the BCA method, and 30 μg of total protein were loaded on a 10% Bis-Tris gel (Invitrogen). EphA4 CTF was visualized using an anti-EphA4-CTF antibody (Abnova, Walnut, CA) and an IRDye800CW® secondary antibody (Rockland Immunochemicals, Inc., Gilbertsville, PA). Detection was performed using an Odyssey scanner (LiCor Biosciences) and blots quantified using ImageJ software (available at http://rsbweb.nih.gov/ij).

[5] = tested on: Aph1AL containing γ-secretase complexes; experiment: Cell-free γ-secretase assay, Aβ1-40 and Aβ1-42 by AlphaLisa; type: biochemical, murine
Description: DAPT was used as a reference positive control for the assay. For each assay condition, a 5-μL microsomal fraction, containing 1% CHAPSO (3-[(3-cholamidopropyl)dimethylammonio]-2-hydroxy-1-propanesulfonate) from murine embryonic fibroblasts (MEF) lacking the Aph-1A, Aph-1B, and Aph-1C genes [60] […] The other half of the reaction mixture was used to analyze the levels of Aβ1-40 and Aβ1-42 by AlphaLisa (Perkin Elmer, Waltham, MA).

## O=C(O)[C@H](CC1CCC1)c1cc(Cl)c(OCC(F)(F)F)c(-c2ccc(C(F)(F)F)cc2)c1 [EVP-0015962, (R)-2-(5-chloro-6-(2,2,2-trifluoroethoxy)-4’-(trifluoromethyl)biphenyl-3-yl)-3-cyclobutylpropanoic acid]
[1]; 10 mg/kg p.o., TBS extraction (NS)
  decrease in brain Aβ42 compared to vehicle-treated mice: 22%
[1]; 30 mg/kg p.o., TBS extraction (p < 0.05)
  decrease in brain Aβ42 compared to vehicle-treated mice: 39%
[1]; 10 or 30 mg/kg p.o.
  brain AβTotal: remained unchanged
[2]
  levels of NICD produced: did not affect
[3]
  production of AICD from APP β-CTF: did not prevent
[4]
  EphA4 CTF accumulation: did not result in EphA4 CTF accumulation
[5]
  levels of Aβ40 in the cell-free assay: without affecting
